Results as given in PubChem BioAssay AID488950 (Broad Institute, 2010).
Values joined by “and” are separate entries in the source; they are usually repeats but may differ in a detail not shown here. Identical values can stand only once. Inconclusive results are not listed. Active and inactive are the calls of the source.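 Rule for the calls: active = fitted half-maximal dose for growth inhibition no higher than ten times the top tested dose; inconclusive = flat curve with 30 to 70% inhibition, or poor fit; inactive = the rest.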

test system: not listed separately; assay: fluconazole-resistant Candida strain growth inhibitors – CaCi-8 strain, dry powder, set 4, dose response (AID 488950); settings: C. albicans CaCi-8 + fluconazole, Alamar Blue growth, 48 h; at 26 µM (top of the series)

Compound	activity change, negative = inhibition
O=C(c1ccc(Cl)cc1)N1CCN(c2cc(C(F)(F)F)nc3ccccc23)CC1	-54.5% (inactive)
O=C(c1ccc(Cl)cc1)N1CCN(c2ccncc2)CC1	-2.65% (inactive)
Cc1cc(N2CCN(C(=O)c3ccc(Cl)cc3)CC2)c2ccccc2n1	6.54% (inactive)
O=S(=O)(c1ccc(Cl)cc1)N1CCN(c2ccnc3cc(Cl)ccc23)CC1	-2.18% (inactive)
COc1cccnc1N1CCN(C(=O)c2ccc(Cl)cc2)CC1	-25% (inactive)
COc1cccc2c(N3CCN(C(=O)c4ccc(Cl)cc4)CC3)cc(C)nc12	-22.9% (inactive)
O=C(c1ccc(Cl)cc1)N1CCNCC1	4.63% (inactive)
CC(C)C(=O)N1CCN(c2ccnc3cc(Cl)ccc23)CC1	-25.6% (inactive)
Clc1ccc2c(N3CCNCC3)ccnc2c1	7.46% (inactive)

test system: C. albicans CaCi-8 + fluconazole, Alamar Blue growth, 48 h; assay: as above; settings: not given

Compound	AC50
O=C(c1ccc(Cl)cc1)N1CCN(c2ccccn2)CC1	9.14 µM and 13.8 µM and 19.9 µM
O=C(c1ccc(Cl)cc1)N1CCN(c2ccnc3cc(Cl)ccc23)CC1	0.179 µM and 0.6 µM
